From US20250230138A1, “COMPOUNDS HAVING A T-STRUCTURE FORMED BY AT LEAST FOUR CYCLES FOR USE IN THE TREATMENT OF CANCER AND OTHER INDICATIONS” (TheRas, Inc., priority 2022, published 2025)
Like-named read-outs stand apart in the source and are kept apart here.

Legend:
pAKT in BT474 cells = experiment: Cell-based pAKT HTRF assay in BT474 cells; details: BT474 cells, 4 hr incubation, read-out: pAKT inhibition IC50 in BT474 cells
Procedure, shortened: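 Compound titration: 3 μM downward in 3-fold steps, nine points, 4 hr on cells. Detection: lysis, then d2 plus Eu Cryptate antibody mix, room-temperature incubation of 4–24 h, and time-resolved fluorescence read at 615 nm.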

[1] = target: Cys242 in human PIK3CA (157-299) (Homo sapiens (Human), UniProt P42336); experiment: Covalent modification assay using MALDI-TOF MS; type: biochemical; details: 4 h reaction time point
Chain of Cys242 in human PIK3CA (157-299) (P42336 157-299): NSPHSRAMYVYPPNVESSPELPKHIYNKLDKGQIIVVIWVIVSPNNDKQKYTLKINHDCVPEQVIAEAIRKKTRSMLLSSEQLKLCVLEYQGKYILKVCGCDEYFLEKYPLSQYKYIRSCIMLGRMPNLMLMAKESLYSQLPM
Procedure, shortened: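 PIK3CA (157-299), 3.33 or 1 μM in 20 mM HEPES, 150 mM NaCl, 2 mM MgCl2, pH 7.3, was incubated with compound at room temperature in the dark for 15 min, 30 min, 2 h or 4 h. Linear MALDI-TOF read-out; % modification = adduct peak height over summed heights of all protein species.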

[2] = 1 μM protein target, 1:5 protein to compound ratio (compounds 853-1279)
[3] = 3.33 μM protein target, 1:7.5 protein to compound ratio (compounds 1-852)
[4] = Homo sapiens, BT-474, Compounds 10-999

Structure (SMILES)	% of modification [1, 2]	IC50 (pAKT in BT474 cells; Compounds 10-999)	% of modification [1, 3]	further results
C=CC(=O)N1CCc2ncc(-c3nc(-c4ccc5c(cnn5C)c4)c4sccc4c3-c3c(F)cc(F)cc3OCCOC)cc2C1 [Compound 1261, 1-[3-[4-[2,4-difluoro-6-(2-methoxyethoxy)phenyl]-7-(1-methylindazol-5-yl)thieno[2,3-c]pyridin-5-yl]-7,8-dihydro-5H-1,6-naphthyridin-6-yl]prop-2-en-1-one]	A (percent of modification of PIK3CA protein ≥75%)	–	–	IC50 (pAKT in BT474 cells; Homo sapiens, BT-474, Compounds 1000-1279): < 100 nM
C=CC(=O)N1CCc2nc(-c3nc(-c4ccc(=O)[nH]c4)c4ccsc4c3-c3ccc(F)cc3OCCOC)sc2C1 [Compound 131]	–	< 100 nM	A (percent of modification of PIK3CA protein ≥75%)	–
C=CC(=O)N1Cc2cc(-c3nc(-c4cnn(C(C)C)c4)c4ccsc4c3-c3c(F)cc(F)cc3OC[C@@H](C)O)nn2C[C@H]1C [Compound 726]	–	< 100 nM	A (percent of modification of PIK3CA protein ≥75%)	–
C=CC(=O)N1CCc2ccc(-c3nc(-c4ccc5c(c4)CNC5=O)c4ccsc4c3-c3c(F)cc(F)cc3OCCOC)cc2C1 (single isomer, unassigned) [Compound 887]	A (percent of modification of PIK3CA protein ≥75%)	< 100 nM	–	–
C=CC(=O)N1CCn2nc(-c3nc(-c4ccc5c(c4)CN(CC(F)(F)F)CC5)c4ccsc4c3-c3c(F)cc(F)cc3OCCOC)cc2C1C (centres unmarked) [Compound 1252]	A (percent of modification of PIK3CA protein ≥75%)	–	–	IC50 (pAKT in BT474 cells; Compounds 1000-1279): < 100 nM
C=CC(=O)N1Cc2cc(-c3nc(-c4cnc5c(cnn5C)c4)c4ccsc4c3-c3c(F)cc(F)cc3OCCOC)nn2C[C@H]1C [Compound 797]	–	< 100 nM	A (percent of modification of PIK3CA protein ≥75%)	–
C=CC(=O)N1CCn2nc(-c3nc(-c4cncc(OCCN(C)C)c4)c4ccsc4c3-c3c(F)cc(F)cc3OCCOC)cc2C1C (centres unmarked) [Compound 1099]	A (percent of modification of PIK3CA protein ≥75%)	–	–	IC50 (pAKT in BT474 cells; Compounds 1000-1279): < 100 nM
C=CC(=O)N1CCn2nc(-c3nc(-c4ccc(OCC5CN(C)C5)cc4)c4ccsc4c3-c3c(F)cc(F)cc3OCCOC)cc2C1C (centres unmarked) [Compound 1078]	A (percent of modification of PIK3CA protein ≥75%)	–	–	IC50 (pAKT in BT474 cells; Compounds 1000-1279): < 100 nM
C=CC(=O)N1Cc2cc(-c3nc(-c4ccc5ncc(=O)n(C)c5c4)c4ccsc4c3-c3c(F)cc(F)cc3OCCOC)nn2CC1C (centres unmarked) [Compound 856]	A (percent of modification of PIK3CA protein ≥75%)	< 100 nM	–	–
C=CC(=O)N1Cc2cc(-c3nc(-c4cnc5c(c4)CNC(=O)C5)c4ccsc4c3-c3c(F)cc(F)cc3OCCOC)nn2[C@@H](C)C1 [Compound 515]	–	< 100 nM	A (percent of modification of PIK3CA protein ≥75%)	–
C=CC(=O)N1CCn2nc(-c3nc(-c4ccc5c(cnn5C)c4)c4ccsc4c3-c3c(F)cc(F)cc3OC)cc2C1C (centres unmarked) [Compound 1111]	C (25%≤percent of modification <50%)	–	–	IC50 (pAKT in BT474 cells; Compounds 1000-1279): 100 to 1000 nM
C=CC(=O)N1CCn2nc(-c3nc(-c4ccc5c(c4)CCN(C)C5=O)c4ccsc4c3-c3c(F)cc(F)cc3OCCO)cc2C1C (centres unmarked) [Compound 995]	A (percent of modification of PIK3CA protein ≥75%)	< 100 nM	–	–
C=CC(=O)N1CCc2cnc(-c3nc(-c4ccc5c(c4)CNC5=O)c4ccsc4c3-c3c(F)cc(F)cc3OC(C)C)cc2C1 [Compound 453, 5-[7-(2,4-difluoro-6-isopropoxy-phenyl)-6-(6-prop-2-enoyl-7,8-dihydro-5H-2,6-naphthyridin-3-yl)thieno[3,2-c]pyridin-4-yl]isoindolin-1-one]	–	–	A (percent of modification of PIK3CA protein ≥75%)	IC50 (pAKT in BT474 cells; [4]): < 100 nM
C=CC(=O)N1CCc2ccc(-c3nc(-c4ccc5c(c4)CCN(CC(F)F)CC5)c4ccsc4c3-c3c(F)cc(F)cc3OCCOC)cc2C1 [Compound 1271]	D (percent of modification <25%)	–	–	IC50 (pAKT in BT474 cells; Compounds 1000-1279): > 1000 nM
C=CC(=O)N1CCn2nc(-c3nc(-c4ccc5c(c4)CNC(=O)C5)c4ccsc4c3-c3c(F)cc(F)cc3OCCO)cc2[C@H]1C [Compound 890]	A (percent of modification of PIK3CA protein ≥75%)	< 100 nM	–	–
C=CC(=O)N1CCc2nc(-c3nc(N4CCN(S(C)(=O)=O)CC4)c4ccsc4c3-c3ccc(F)cc3OCCOC)sc2C1 [Compound 167]	–	100 to 1000 nM	B (50%<percent of modification <75%)	–

Structure (SMILES)	% of modification [1, 2]	IC50 (pAKT in BT474 cells; Compounds 10-999)	% of modification [1, 3]	further results
C=CC(=O)N1CCc2ncc(-c3nc(-c4cnnc(C)c4)c4ccsc4c3-c3c(F)cc(F)cc3OCCOC)cc2C1 [Compound 383]	–	< 100 nM	A (percent of modification of PIK3CA protein ≥75%)	–
C=CC(=O)N1CCn2nc(-c3nc(-c4cnn(C)c4)c4ccsc4c3-c3ccc(F)cc3OC(C)C)cc2C1C (centres unmarked) [Compound 394]	–	< 100 nM	A (percent of modification of PIK3CA protein ≥75%)	–
C=CC(=O)N1CCn2nc(-c3nc(-c4ccc5c(cnn5C)c4)c4ccsc4c3-c3c(F)cc(F)cc3OC[C@@H](C)O)cc2[C@@H]1C [Compound 671]	–	< 100 nM	A (percent of modification of PIK3CA protein ≥75%)	–
C=CC(=O)N1CC(n2cc(-c3nc(-c4ccnc(N)c4)c4ccsc4c3-c3ccc(F)cc3OCCOC)ccc2=O)C1 [Compound 177]	–	100 to 1000 nM	B (50%<percent of modification <75%)	–
C=CC(=O)N1CCc2nc(-c3nc(-c4ccc5c(c4)CNC5=O)c4ccsc4c3-c3c(F)cc(F)cc3OC(C)C)sc2C1 [Compound 311, 5-[7-(2,4-difluoro-6-isopropoxy-phenyl)-6-(5-prop-2-enoyl-6,7-dihydro-4H-thiazolo[5,4-c]pyridin-2-yl)thieno[3,2-c]pyridin-4-yl]isoindolin-1-one]	–	–	A (percent of modification of PIK3CA protein ≥75%)	IC50 (pAKT in BT474 cells; [4]): < 100 nM
C=CC(=O)N1CCn2nc(-c3nc(-c4ccc5c(c4)ncn5C)c4ccsc4c3-c3c(F)cc(F)cc3OCCO)cc2[C@@H]1C [Compound 664, 1-((S)-2-((S)-7-(2,4-difluoro-6-(2-hydroxyethoxy)phenyl)-4-(1-methyl-1H-benzo[d]imidazol-5-yl)thieno[3,2-c]pyridin-6-yl)-4-methyl-6,7-dihydropyrazolo[1,5-a]pyrazin-5(4H)-yl)prop-2-en-1-one]	–	< 100 nM	A (percent of modification of PIK3CA protein ≥75%)	–
C=CC(=O)N1CCn2nc(-c3nc(-c4cnc5c(c4)CNC5=O)c4ccsc4c3-c3c(F)cc(F)cc3OCCO)cc2C1C (centres unmarked) [Compound 961]	A (percent of modification of PIK3CA protein ≥75%)	100 to 1000 nM	–	–
C=CC(=O)N1CC[C@H](n2cc(-c3nc(-c4ccc5c(c4)CNC5=O)c4ccsc4c3-c3ccc(F)cc3OC(C)C)cn2)C1 [Compound 328]	–	< 100 nM	A (percent of modification of PIK3CA protein ≥75%)	–
C=CC(=O)N1CCn2nc(-c3nc(-c4ccc5c(c4)CN(C)CC5)c4ccsc4c3-c3c(F)cc(F)cc3OCCO)cc2[C@H]1C [Compound 1136]	A (percent of modification of PIK3CA protein ≥75%)	–	–	IC50 (pAKT in BT474 cells; Compounds 1000-1279): < 100 nM
C=CC(=O)N1Cc2cc(-c3nc(-c4ccc5c(c4)CN(C)C5=O)c4ccsc4c3-c3c(F)cc(F)cc3OC)nn2C(C)C1 (centres unmarked) [Compound 946]	A (percent of modification of PIK3CA protein ≥75%)	< 100 nM	–	–
C=CC(=O)N1CCn2nc(-c3nc(-c4ccc5c(c4)CN(C)C(=O)C5)c4ccsc4c3-c3c(F)cc(F)cc3OCCOC)cc2[C@@H]1C [Compound 975]	D (percent of modification <25%)	< 100 nM	–	–
C=CC(=O)N1CCc2nc(-c3nc(-c4ccc(C5(N)CCC5)cc4)c4ccsc4c3-c3c(F)cc(F)cc3OCCOC)sc2C1 [Compound 436]	–	100 to 1000 nM	A (percent of modification of PIK3CA protein ≥75%)	–
C=CC(=O)N1CCn2nc(-c3nc(-c4ccc(C(=O)N(C)CCN(C)C)cc4)c4ccsc4c3-c3c(F)cc(F)cc3OCCOC)cc2C1C (centres unmarked) [Compound 1206]	A (percent of modification of PIK3CA protein ≥75%)	–	–	IC50 (pAKT in BT474 cells; Compounds 1000-1279): < 100 nM
C=C(F)C(=O)N1CC(n2cc(-c3nc(-c4ccc5c(c4)CCNC5)c4ccsc4c3-c3ccc(F)cc3OC)cn2)C1 [Compound 114]	–	1000 to 3000 nM	A (percent of modification of PIK3CA protein ≥75%)	–
C=CC(=O)N1CCn2nc(-c3nc(-c4ccc5oc(C)nc5c4)c4ccsc4c3-c3c(F)cc(F)cc3OC[C@@H](C)O)cc2[C@@H]1C [Compound 655]	–	< 100 nM	A (percent of modification of PIK3CA protein ≥75%)	–
